We go through 5 molecules from BindingDB's records for doi:10.1002/cbic.200400099 (Technische UniversitÄT Braunschweig, 2005).

What all share (assay): Kinase Assay
Conditions in all cases: pH 7.5; 30 °C

Test [1] concerns the target Cyclin-dependent kinase 5 (Homo sapiens, UniProt Q00535).
Text: (§1) Kinase activity assay using GSK-3beta, CDK1/cyclin B and CDK5/p25.
Test [2] has as its target Cyclin-dependent kinase 1 (Homo sapiens, UniProt P06493).
Text: as §1
For test [3], the target named is Glycogen synthase kinase-3 beta (Homo sapiens, UniProt P49841).
Text: as §1

The structures appear in SMILES notation.

Chain of Glycogen synthase kinase-3 beta (P49841 whole entry): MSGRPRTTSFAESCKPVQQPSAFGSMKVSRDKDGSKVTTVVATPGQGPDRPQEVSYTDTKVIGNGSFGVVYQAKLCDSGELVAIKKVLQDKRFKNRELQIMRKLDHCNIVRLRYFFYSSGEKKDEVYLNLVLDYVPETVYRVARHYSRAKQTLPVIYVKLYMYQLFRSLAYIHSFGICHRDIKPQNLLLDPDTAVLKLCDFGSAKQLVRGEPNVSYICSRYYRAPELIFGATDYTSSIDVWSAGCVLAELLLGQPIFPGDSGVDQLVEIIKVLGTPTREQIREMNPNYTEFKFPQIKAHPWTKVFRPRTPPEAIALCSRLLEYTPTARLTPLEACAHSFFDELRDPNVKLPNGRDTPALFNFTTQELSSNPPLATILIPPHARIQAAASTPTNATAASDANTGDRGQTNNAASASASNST
Chain of Cyclin-dependent kinase 5 (Q00535 whole entry): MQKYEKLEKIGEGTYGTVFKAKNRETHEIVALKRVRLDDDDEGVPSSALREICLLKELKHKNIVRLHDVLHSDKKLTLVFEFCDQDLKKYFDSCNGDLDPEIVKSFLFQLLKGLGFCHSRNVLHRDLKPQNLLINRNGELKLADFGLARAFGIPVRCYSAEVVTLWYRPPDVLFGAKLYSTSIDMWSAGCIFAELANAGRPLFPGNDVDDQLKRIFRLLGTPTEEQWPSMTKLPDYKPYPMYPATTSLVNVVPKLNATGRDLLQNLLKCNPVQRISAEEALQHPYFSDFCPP
Chain of Cyclin-dependent kinase 1 (P06493 whole entry): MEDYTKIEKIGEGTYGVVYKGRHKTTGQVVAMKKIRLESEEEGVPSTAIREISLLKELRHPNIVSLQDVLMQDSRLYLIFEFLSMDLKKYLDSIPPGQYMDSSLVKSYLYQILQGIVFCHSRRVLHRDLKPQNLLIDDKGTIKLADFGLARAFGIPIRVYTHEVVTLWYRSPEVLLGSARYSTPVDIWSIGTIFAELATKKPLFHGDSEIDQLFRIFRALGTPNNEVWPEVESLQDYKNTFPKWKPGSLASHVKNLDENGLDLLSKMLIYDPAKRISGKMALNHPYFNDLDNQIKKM

What is called IC50 is the concentration at which inhibition is half-maximal. Turning to `NCCCCc1ccc2c(c1)-c1[nH]c3ccc([N+](=O)[O-])cc3c1CC(=O)N2` [Alsterpaullone derivative, 3], the values for the IC50 in test [1], in test [2] and in test [3] were 70 nM, 80 nM and 6 nM, respectively.
As for `O=C(O)CCc1ccc2c(c1)-c1[nH]c3ccc([N+](=O)[O-])cc3c1CC(=O)N2` [Alsterpaullone derivative, 5], the figures for the concentration for half-maximal inhibition (IC50) in test [1], in test [2] and in test [3] were 80 nM, 25 nM and 6.5 nM, respectively.
In the same order, the values of `N#CCCc1ccc2c(c1)-c1[nH]c3ccc([N+](=O)[O-])cc3c1CC(=O)N2` are 30 nM, 0.23 nM and 0.8 nM.
The matching figures for `NCCCc1ccc2c(c1)-c1[nH]c3ccc([N+](=O)[O-])cc3c1CC(=O)N2` [Alsterpaullone derivative, 4]: 23 nM, 27 nM and 2.5 nM.
In the same order, the values of `COC(=O)CCc1ccc2c(c1)-c1[nH]c3ccc([N+](=O)[O-])cc3c1CC(=O)N2` [Alsterpaullone derivative, 6] are 250 nM, 100 nM and 34 nM.
